Source: patent US11607432B2, “Probiotic compositions containing clostridiales for inhibiting inflammation” (Evelo Biosciences, Inc., priority 2014, dated 2023)
Entries after “also recorded” stand apart in the source; their conditions may differ. Read-outs that look alike come from different tables or passages of the source.

Tests used:
[1] = tested on: human peripheral blood mononuclear cells (PBMCs); assay: Cytokine release by human PBMCs incubated with commensal bacteria alone or in combination with E. faecalis (Luminex); type: cell-based; conditions: for ability to reduce/counteract the induction of pro-inflammatory cytokines by EPV 8 (incl. IL-6, MCP-1, IL-12p70, IFNγ): combination with EPV 8; for anti-inflammatory cytokine profile for a Th-1-driven condition such as GVHD: overall assessment, FIG. 11
[2] = cited from earlier work
human PBMCs = assay: Flow cytometry of T cell populations in human PBMCs cultured with commensal bacteria; type: cell-based; conditions: compared to PBMCs alone (control); percent of CD3ε+CD4+ cells
Protocol: In order to determine whether exposure to commensal bacteria may polarize T cells toward a particular phenotype, flow cytometry analysis was performed on human PBMCs cultured with various commensal bacteria as described above. The cells recovered from culture were washed in phosphate-buffered saline and stained with a cocktail of fluorescently labeled antibodies against specific cell surface protein markers to allow for the detection of Th1 cells (CXCR3^+CCR6^−), Th2 cells (CXCR3^−CCR6^−), Th17 cells (CXCR3^+CCR6^+) and Tregs (CD25^+CD127^lo). Negative control wells contained PBMCs in culture medium alone and positive control wells contained PBMCs+LPS (100 ng/ml) as a known immune stimulus. The commensal bacteria examined inluded: Epv 1: R. gnavus; Epv 3: B. luti; Epv 2: E. rectale; Epv 5: B. wexlerae; Epv. 8: E. faecalis; Epv 20: B. obeum, ATCC 29174; Epv 21: B. product, ATCC 27340; Epv 24: B. hansenii, ATCC 27752. […] For example, the optimal T cell profile to address pro-inflammatory disorders such as GVHD would consist of ↑Treg, ↓Th17, ↓ or unchanged Th1, and ↑Th2. This phenotype was induced by many of the bacteria tested.

intestinal permeability = type: in vivo, mice
[3] = human, in vivo
Protocol: D-xylose is a carbon source generally preferred by anaerobic bacteria. […] A parallel, double-blind, 5 cohort escalation food safety study was conducted to examine D-xylose in normal human volunteers. The study was a double-blind, single-center, parallel group study designed to evaluate the tolerability and potential microbiome changes induced by ingestion of D-xylose at 5 different amounts in healthy, adult volunteers enrolled at 1 study center in the United States (US).
Subjects were screened for eligibility within 21 days prior to the first planned ingestion of study sweetener on Day 1 (Baseline). […]
Subjects returned to the study center weekly on Days 8, 15, 22, and 28 for ingestion, tolerability, and compliance evaluations. Safety was evaluated on a continual basis through adverse events (AE) monitoring, clinical laboratory measurements, vital sign monitoring, physical examinations, electrocardiograms (ECGs), telephone follow-up, and electronic subject ingestion diaries. Stool was collected pre-ingestion and at pre-specified time points, and post-ingestion samples were evaluated for changes in the gut microbiome compared with Baseline for all subjects. […]
Safety was evaluated on a continual basis through AE monitoring, clinical laboratory measurements, vital sign monitoring, physical examinations, ECGs, telephone follow-up, and electronic subject ingestion diaries. […]

gut microbiome = assay: Normal human volunteer study of D-xylose: changes in the gut microbiome (stool 16S sequencing); type: in vivo; conditions: for alpha diversity of the gut microbiome: over time on study
[4] = Normal human volunteer study of D-xylose: serum CRP, serum cytokines and T-cell markers; type: in vivo
Description: Blood was collected at pre-specified pre- and post-ingestion time points to evaluate C-reactive protein (CRP), serum cytokines (tumor necrosis factor alpha [TNF-α], interleukin [IL]-2, IL-6, interferon gamma [IFN-γ], and IL-10), and T-cell markers CD3, CD4, CD8, CD25, and FOXP3. Plasma was also stored and may be tested for biomarkers and/or metabolic markers for up to 7 years.
Summary statistics (n, mean, standard deviation, median, minimum, and maximum) were presented for serum concentrations of CRP, flow cytometry T-cell markers (CD3, CD4, CD8, CD25, and FOXP3), and cytokines (TNF-α, IL-2, IL-6, IFN-γ, and IL-10) as per their nominal time points.

[5] = bacterium alone, 24, 48 and 72 hours
[6] = Table 1, NIAID priority pathogen category, OP or N

For Blautia luti [EPV 3], the “intrinsic inflammatory activity (induction of pro-inflammatory cytokines) compared to EPV 8” value ([1]; bacterium alone) was “relatively low intrinsic inflammatory activity”, the “induction of Th1-related cytokines (IFN-γ, IL-12p70, IL-6, IL-2, TNFα)” value [1, 5] was “minimal induction” and the “induction of monocyte, macrophage and neutrophil-related inflammatory cytokines (MCP-1, MIP1β, MIP1α, RANTES, IL-1α, IL1β, IFN-α2, IL-8)” value [1, 5] was “least inflammatory”. For the same molecule, the “countering the effect of E. faecalis (Epv 8) on monocyte, macrophage and neutrophil-related inflammatory cytokines” value ([1]; combination with E. faecalis) was “most effective”, the “counteracting induction of Th1-related cytokines by E. faecalis (Epv 8)” value ([1]; combination with E. faecalis, 24, 48 and 72 hours) was “most effective” and the “ability to reduce/counteract the induction of pro-inflammatory cytokines by EPV 8 (incl. IL-6, MCP-1, IL-12p70, IFNγ)” value [1] was “able to reduce the induction of pro-inflammatory cytokines”. For the same molecule, the “anti-inflammatory cytokine profile for a Th-1-driven condition such as GVHD” value [1] was “significantly desirable anti-inflammatory profile; also recorded: desirable anti-inflammatory cytokine profile”.
For Bacteroides fragilis, the “Pathogen Status” value ([2]; Table 1, OTU list, NIAID priority pathogen category, OP or N) is listed as “N”.
In the case of Ruminococcus gnavus [EPV 1], the “eliciting Th2 cytokines (IL-13, IL-4, IL-5)” value ([1]; bacterium on its own, 24, 48 and 72 hours) is reported as “most active” and the “eliciting Th2 cytokines (IL-13, IL-4, IL-5)” value ([1]; in the presence of E. faecalis, 24, 48 and 72 hours) is reported as “most active”.
In the case of Clostridium sordellii, the “Pathogen Status” value [2, 6] is listed as “N”.
In the case of Clostridium glycolicum, the “Pathogen Status” value [2, 6] is listed as “N”.
For Blautia producta ATCC 27340 [EPV 21], the “proportion of T cells with a regulatory phenotype (Tregs, CD25+CD127lo)” value (“proportion of T cells” below) (human PBMCs) was “greatest impact”.
With Blautia obeum [EPV 78] the “low induction of pro-inflammatory cytokines and/or positive induction of anti-inflammatory cytokines, and ability to counteract the inflammatory activity of E. faecalis (candidate criteria)” value (“low induction” for short) [1] was “meeting these criteria”.
In the case of Clostridium paraputrificum, the “Pathogen Status” value [2, 6] is listed as “N”.
With `O=C[C@H](O)[C@@H](O)[C@H](O)CO` [D-xylose] the “basal levels of serum endotoxin” value (intestinal permeability; mouse, in vivo) was “reduced these basal levels over time; also recorded: reduces basal levels of serum endotoxin”, the “effect of xylose on the increase in serum endotoxin level caused by cipro” value (intestinal permeability; mouse, in vivo) was “appeared to counteract the increase in serum endotoxin level; also recorded: counteracts the endotoxin increase” and the “effect of xylose on the increase in serum endotoxin level caused by enro” value (intestinal permeability; mouse, in vivo) was “but not enro”. For the same molecule, the “SAEs, severe AEs, subject deaths” value [3] was “No SAEs, severe AEs, or subject deaths were reported”, the “changes in the gut microbiome, overall” value (gut microbiome; normal individuals and normal mice) was “subtle changes in the gut microbiome” and the “community composition of the gut microbiome over time” value (gut microbiome; regardless of ingestion amount) was “no significant changes in community composition”. The “alpha diversity of the gut microbiome” value (gut microbiome; regardless of ingestion amount) was “no apparent significant impact”, the “alpha diversity of the gut microbiome” value (gut microbiome; regardless of ingestion amount, listed as xylose) was “no major shifts in the microbiome alpha diversity” and the “Chao diversity index (community richness) over time” value (gut microbiome; xylose TID at 1, 2, 8, 12.5 or 15 grams, FIG. 31) was “overall decrease”. The “levels of serum interferon gamma over time” value ([4]; 2 g and 15 g D-xylose cohorts, FIG. 30) was “trend for reduced levels”, the “total T-cells or any T-cell subsets over time” value ([4]; any ingestion amount) was “No consistent or clinically meaningful changes over time” and the “subjects with normal serum CRP at Baseline with at least 1 post-ingestion CRP value >2.9 mg/L” value ([4]; human, in vivo) was 8.3%. The “serum cytokines (TNF-α, IL-2, IL-6, IFN-γ, IL-10) over time” value ([4]; most data points below the limit of quantitation, any ingestion amount) was “did not indicate any consistent or clinically meaningful changes over time”.
In the case of Blautia Hansenii ATCC27752 [EPV 24], the “proportion of T cells” value (human PBMCs) is reported as “greatest impact”.
With Blautia wexlerae [EPV 5] the “induction of IL-10” value ([1]; 24, 48 and 72 hours) was “most potent”, the “ability to reduce/counteract the induction of pro-inflammatory cytokines by EPV 8 (incl. IL-6, MCP-1, IL-12p70, IFNγ)” value [1] was “little ability to counteract” and the “anti-inflammatory cytokine profile for a Th-1-driven condition such as GVHD” value [1] was “suboptimal anti-inflammatory profile”.
In the case of Clostridium tertium, the “Pathogen Status” value [2, 6] is listed as “N”.
In the case of Eubacterium rectale [EPV 2], the “induction of monocyte, macrophage and neutrophil-related inflammatory cytokines (MCP-1, MIP1β, MIP1α, RANTES, IL-1α, IL1β, IFN-α2, IL-8)” value [1, 5] is reported as “least inflammatory” and the “countering the effect of E. faecalis (Epv 8) on monocyte, macrophage and neutrophil-related inflammatory cytokines” value ([1]; combination with E. faecalis) is reported as “most effective”.
In the case of “Enterococcus faecalis [EPV 8, reference compound]”, the “Pathogen Status” value ([2]; OTU of Table 1) is listed as “N”, the “proportion of T cells” value (human PBMCs) is listed as “little or no increase” and the “induction of Th1-related cytokines (IFN-γ, IL-12p70, IL-6, IL-2, TNFα)” value [1] is listed as “induced high levels”.
For Blautia luti (BlnIX) [EPV 114], the “low induction” value [1] was “meeting these criteria”.
For Eubacterium rectale [EPV 35], the “low induction” value [1] was “meeting these criteria”.
For `CCN1CCN(c2cc3c(cc2F)c(=O)c(C(=O)O)cn3C2CC2)CC1` [enro, enrofloxacin, reference compound], the “serum endotoxin levels after antibiotic treatment” value (intestinal permeability; 0.25 g/L in drinking water day −7 to day −2, measured 2 days after a 5 day course (day 0)) was “increase in serum endotoxin levels” and the “serum endotoxin levels over time after antibiotic treatment” value (intestinal permeability; by day 14) was “return to baseline by day 14”.
